Patent publication US20260125370A1, “SULFOXIMINE COMPOUNDS AS HISTONE DEACETYLASE 6 INHIBITOR, AND PHARMACEUTICAL COMPOSITION COMPRISING THE SAME” (CHONG KUN DANG PHARMACEUTICAL CORP., priority 2022, published 2026)

Key:
human recombinant HDAC6 = biological target: T1, human recombinant HDAC6 (Homo sapiens, UniProt Q9UBN7); assay: HDAC6 enzyme activity inhibition (fluorimetric, in vitro); format: biochemical; conditions: samples at 0.1, 1, 10, 100 and 1000 nM
T1 construct: purchased Calbiochem 382180
T1 sequence (Q9UBN7 1-1215): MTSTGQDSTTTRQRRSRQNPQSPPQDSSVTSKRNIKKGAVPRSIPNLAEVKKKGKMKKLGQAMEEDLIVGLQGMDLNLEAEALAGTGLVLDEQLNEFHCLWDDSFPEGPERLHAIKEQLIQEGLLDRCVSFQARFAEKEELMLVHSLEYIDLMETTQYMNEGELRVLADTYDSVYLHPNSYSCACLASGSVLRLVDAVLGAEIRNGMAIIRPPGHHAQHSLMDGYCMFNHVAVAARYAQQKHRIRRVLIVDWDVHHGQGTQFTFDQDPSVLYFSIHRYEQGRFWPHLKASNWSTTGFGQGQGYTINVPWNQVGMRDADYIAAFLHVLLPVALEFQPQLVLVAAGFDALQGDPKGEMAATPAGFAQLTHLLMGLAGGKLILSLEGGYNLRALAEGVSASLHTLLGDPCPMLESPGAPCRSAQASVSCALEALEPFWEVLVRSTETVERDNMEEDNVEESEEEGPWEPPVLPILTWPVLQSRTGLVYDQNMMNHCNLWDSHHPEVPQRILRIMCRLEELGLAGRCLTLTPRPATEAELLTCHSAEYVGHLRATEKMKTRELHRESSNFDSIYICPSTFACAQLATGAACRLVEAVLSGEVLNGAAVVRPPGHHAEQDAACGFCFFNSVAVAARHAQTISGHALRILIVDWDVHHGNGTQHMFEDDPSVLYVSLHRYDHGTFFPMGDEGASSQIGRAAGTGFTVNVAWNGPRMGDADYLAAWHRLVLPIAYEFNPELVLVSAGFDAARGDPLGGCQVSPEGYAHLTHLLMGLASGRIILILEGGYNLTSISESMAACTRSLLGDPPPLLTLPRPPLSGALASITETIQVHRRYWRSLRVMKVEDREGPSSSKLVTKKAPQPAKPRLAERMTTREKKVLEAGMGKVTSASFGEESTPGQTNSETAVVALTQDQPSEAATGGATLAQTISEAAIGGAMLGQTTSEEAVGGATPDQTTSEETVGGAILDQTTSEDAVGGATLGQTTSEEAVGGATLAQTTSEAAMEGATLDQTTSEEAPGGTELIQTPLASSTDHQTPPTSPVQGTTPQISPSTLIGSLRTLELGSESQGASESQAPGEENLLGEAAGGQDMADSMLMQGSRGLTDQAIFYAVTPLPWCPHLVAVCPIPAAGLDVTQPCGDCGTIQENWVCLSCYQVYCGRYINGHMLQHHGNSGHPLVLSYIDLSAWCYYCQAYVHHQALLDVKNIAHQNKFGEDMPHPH
Experimental: (§1) A HDAC enzyme inhibitory capacity of a test material was measured by using HDAC1 Fluorimetric Drug Discovery Assay Kit (Enzolifesciences: BML-AK511) and HDAC6 human recombinant (Calbiochem: 382180). For a HDAC1 assay, samples were treated at a concentration of 100, 1000 and 10000 nM. For a HDAC6 assay, samples were treated at a concentration of 0.1, 1, 10, 100 and 1000 nM.
(§2) For the test on the HDAC1 enzyme activity, human recombinant HDAC1 (BML-SE456) was used as a zymogen and Fluor de Lys®-SIRT1 (BNL-KI177) was used as a substrate. A 5-fold dilution of the compound was divided into a 96-well plate, after which 0.3 μg of the enzyme and […] of the substrate were inserted into each well and subjected to reaction at 37° C. for 60 minutes, such that Fluor de Lys® Developer II (BML-K1176) was inserted thereinto and subjected to reaction for 30 minutes and finished. After that, a fluorescence value (Ex 360, Em 460) was measured with a multi-plate reader (FlexStation 3, Molecular Device). An experiment on HDAC6 enzyme was conducted in accordance with the same protocol as in the HDAC1 enzyme activity test method by using human recombinant HDAC6 (382180) of Calbiochem Inc. For final result values, each IC50 value was calculated with GraphPad Prism 4.0 program.

human recombinant HDAC1 = biological target: T2, human recombinant HDAC1 (Homo sapiens, UniProt Q13547); assay: HDAC1 enzyme activity inhibition (HDAC1 Fluorimetric Drug Discovery Assay Kit, in vitro); format: biochemical; conditions: samples at 100, 1000 and 10000 nM
T2 construct: purchased Enzolifesciences BML-SE456
T2 sequence (Q13547 whole entry): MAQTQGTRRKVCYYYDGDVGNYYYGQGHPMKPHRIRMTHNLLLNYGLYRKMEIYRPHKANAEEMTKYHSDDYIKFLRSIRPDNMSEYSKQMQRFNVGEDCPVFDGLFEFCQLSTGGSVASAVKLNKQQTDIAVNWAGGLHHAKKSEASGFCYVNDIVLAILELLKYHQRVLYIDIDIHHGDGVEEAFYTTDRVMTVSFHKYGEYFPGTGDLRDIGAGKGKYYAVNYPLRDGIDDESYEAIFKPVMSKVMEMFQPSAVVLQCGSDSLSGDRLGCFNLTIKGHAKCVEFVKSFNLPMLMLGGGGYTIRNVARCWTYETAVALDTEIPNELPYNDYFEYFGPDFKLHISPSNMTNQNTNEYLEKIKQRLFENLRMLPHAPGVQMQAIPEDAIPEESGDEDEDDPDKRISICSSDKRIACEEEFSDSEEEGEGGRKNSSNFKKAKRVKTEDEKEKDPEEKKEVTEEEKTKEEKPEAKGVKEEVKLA
Experimental: as §1, §2

SMILES | IC50 (human recombinant HDAC6) [nM] | IC50 (human recombinant HDAC1) [nM]
CCOP(=O)(N=S1(=O)CCN(C(=O)N(Cc2ccc(-c3nnc(C(F)F)o3)cc2F)c2ccc(F)c(F)c2)CC1)OCC [Compound 29, Diethyl (4-((4-(5-(difluoromethyl)-1,3,4-oxadiazol-2-yl)-2-fluorobenzyl)(3,4-difluorophenyl)carbamoyl)-1-oxidothiomorpholin-1-ylidene)phosphoramidate] | 78.8 | > 10000
N=S1(=O)CCN(C(=O)N(Cc2ccc(-c3nnc(C(F)F)o3)cc2F)c2cccc(C(F)(F)F)c2)CC1 [Compound 31, N-(4-(5-(difluoromethyl)-1,3,4-oxadiazol-2-y1)-2-fluorobenzyl)-1-imino-N-(3-(trifluoromethyl)phenyl)thiomorpholin-4-carboxamide 1-oxide] | 91.4 | > 10000
O=C(N1CCS(=O)(=NC(=O)C(F)(F)F)CC1)N(Cc1ccc(-c2nnc(C(F)F)o2)cn1)c1ccccc1 [Compound 2, N-((5-(5-(difluoromethyl)-1,3,4-oxadiazol-2-yl)pyridin-2-yl)methyl)-N-phenyl-1-((2,2,2-trifluoroacetyl)imino)thiomorpholin-4-carboxamide 1-oxide] | 168 | > 10000
Cn1ccc2cc(N(Cc3ccc(-c4nnc(C(F)F)o4)cc3F)C(=O)N3CCS(=N)(=O)CC3)ccc21 [Compound 10, N-(4-(5-(difluoromethyl)-1,3,4-oxadiazol-2-yl)-2-fluorobenzyl)-1-imino-N-(1-methyl-1H-indol-5-yl)thiomorpholin-4-carboxamide 1-oxide] | 108 | > 10000
N=S1(=O)CC(N2C[C@@H]3C[C@H]2CN3C(=O)N(Cc2ccc(-c3nnc(C(F)F)o3)cn2)c2ccccc2)C1 (stereo partly drawn) [Compound 84, (1S,4S)—N-[[5-[5-(difluoromethyl)-1,3,4-oxadiazol-2-yl]-2-pyridyl]methyl]-5-(1-imino-1-oxo-thiethan-3-yl)-N-phenyl-2,5-diazabicyclo[2.2.1]heptan-2-carboxamide] | 56 | > 10000
N=S1(=O)CCN(C(=O)N(Cc2ccc(-c3nnc(C(F)F)o3)cc2F)c2cccc(-c3ccco3)c2)CC1 [Compound 44, N-(4-(5-(difluoromethyl)-1,3,4-oxadiazol-2-yl)-2-fluorobenzyl)-N-(3-(furan-2-yl)phenyl)-1-iminothiomorpholin-4-carboxamide 1-oxide] | 130 | > 10000
N=S1(=O)CCN(C(=O)N(Cc2ccc(-c3nnc(C(F)F)o3)cc2F)c2ccc3c(c2)CCC3)CC1 [Compound 28, N-(4-(5-(difluoromethyl)-1,3,4-oxadiazol-2-y1)-2-fluorobenzyl)-N-(2,3-dihydro-1H-inden-5-yl)-1-iminothiomorpholin-4-carboxamide 1-oxide] | 92.2 | > 10000
N=S1(=O)CCN(C(=O)N(Cc2cnc(-c3nnc(C(F)F)o3)cn2)c2cccc(F)c2)CC1 [Compound 81, N-[[5-[5-(difluoromethyl)-1,3,4-oxadiazol-2-yl]pyrazin-2-yl]methyl]-N-(3-fluorophenyl)-1-imino-1-oxo-1,4-thiazinan-4-carboxamide] | 241 | > 10000
CC1CN(C(=O)N(Cc2ccc(-c3nnc(C(F)F)o3)cn2)c2ccc(F)cc2)CC(C)S1(=N)=O (stereo not shown) [Compound 64, N-[[5-[5-(difluoromethyl)-1,3,4-oxadiazol-2-yl]-2-pyridyl]methyl]-N-(4-fluorophenyl)-1-imino-2,6-dimethyl-1-oxo-1,4-thiazinan-4-carboxamide] | 123 | > 10000
N=S1(=O)CC(N2C[C@@H]3C[C@H]2CN3c2c(N(Cc3ncc(-c4nnc(C(F)F)o4)cc3F)c3ccccc3)c(=O)c2=O)C1 (stereo partly drawn) [Compound 88, 3-[N-[[5-[5-(difluoromethyl)-1.3.4-oxadiazol-2-yl]-3-fluoro-2-pyridyl]methyl]anilino]-4-[(1S,4S)-5-(1-imino-1-oxo-thiethan-3-yl)-2,5-diazabicyclo[2.2.1]heptan-2-yl]cyclobut-3-en-1,2-dione] |  | > 10000

The remaining lines, values ahead:

IC50 (human recombinant HDAC6) [nM] | IC50 (human recombinant HDAC1) [nM] | SMILES
69.9 | > 10000 | N=S1(=O)CCN(C(=O)N(Cc2ccc(-c3nnc(C(F)F)o3)cc2F)c2ccc(Cl)cc2Cl)CC1 [Compound 51, N-(2,4-dichlorophenyl)-N-(4-(5-(difluoromethyl)-1,3,4-oxadiazol-2-y1)-2-fluorobenzyl)-1-iminothiomorpholin-4-carboxamide 1-oxide]
390 | > 10000 | O=C(N=S1(=O)CCN(C(=O)N(Cc2ccc(-c3nnc(C(F)F)o3)cc2F)c2ccccc2)CC1)OCc1ccccc1 [Compound 4, Benzyl (4-((4-(5-(difluoromethyl)-1,3,4-oxadiazol-2-yl)-2-fluorobenzyl)(phenyl)carbamoyl)-1-oxidothiomorpholin-1-ylidene)carbamate]
80.6 | > 10000 | Cc1cccc(N(Cc2ccc(-c3nnc(C(F)F)o3)cc2F)C(=O)N2CCS(=N)(=O)CC2)c1 [Compound 32, N-(4-(5-(difluoromethyl)-1,3,4-oxadiazol-2-y1)-2-fluorobenzyl)-1-imino-N-(m-tolyl)thiomorpholin-4-carboxamide 1-oxide]
63.6 | > 10000 | N=S1(=O)CCN(C(=O)N(Cc2ccc(-c3nnc(C(F)F)o3)cn2)c2cc(F)ccc2F)CC1 [Compound 45, N-((5-(5-(difluoromethyl)-1,3,4-oxadiazol-2-yl)pyridin-2-yl)methyl)-N-(2,5-difluorophenyl)-1-iminothiomorpholin-4-carboxamide 1-oxide]
280 | > 10000 | N=S1(=O)CCN(C(=O)N(Cc2ccc(-c3nnc(C(F)(F)F)o3)cn2)c2ccccc2)CC1 [Compound 9, 1-imino-N-phenyl-N-((5-(5-(trifluoromethyl)-1,3,4-oxadiazol-2-yl)pyridin-2-yl)methyl)thiomorpholine-4-carboxamide 1-oxide]
37.7 | > 10000 | N=S1(=O)CCN(C(=O)N(Cc2ccc(-c3nnc(C(F)F)o3)cc2F)c2ccc(Cl)c(Cl)c2)CC1 [Compound 42, N-(3,4-dichlorophenyl)-N-(4-(5-(difluoromethyl)-1,3,4-oxadiazol-2-yl)-2-fluorobenzyl)-1-iminothiomorpholin-4-carboxamide 1-oxide]
31.7 | > 10000 | N=S1(=O)CCN(S(=O)(=O)N(Cc2ccc(-c3nnc(C(F)F)o3)cn2)c2cccc(Cl)c2)CC1 [Compound 71, N-(3-chlorophenyl)-N-[[5-[5-(difluoromethyl)-1,3,4-oxadiazol-2-yl]-2-pyridyl]methyl]-1-imino-1-oxo-1,4-thiazinan-4-sulfonamide]
62.6 | > 10000 | N=S1(=O)CCN(C(=O)N(Cc2ccc(-c3nnc(C(F)F)o3)cc2F)c2cccs2)CC1 [Compound 12, N-(4-(5-(difluoromethyl)-1,3,4-oxadiazol-2-yl)-2-fluorobenzyl)-1-imino-N-(thiophen-2-yl)thiomorpholin-4-carboxamide 1-oxide]
65.9 | > 10000 | N=S1(=O)CCN(C(=O)N(Cc2ncc(-c3nnc(C(F)F)o3)cc2F)c2cc(F)ccc2F)CC1 [Compound 46, N-((5-(5-(difluoromethyl)-1,3,4-oxadiazol-2-yl)-3-fluoropyridin-2-yl)methyl)-N-(2,5-difluorophenyl)-1-iminothiomorpholin-4-carboxamide 1-oxide]
